Data as given in patent US20080138461A1, “Lactobacillus buchneri strain LN1297 and its use to improve aerobic stability of silage” (Pioneer Hi-Bred International, Inc., priority 2006, published 2008).

Test: Aerobic stability of grass silage (method of Honig), PVC silos
Set-up: species or system ryegrass
Procedure: Second cut ryegrass was harvested at PLNC. The grass was determined to have an approximate dry matter of 35%.
Inoculation: Individual strains were supplied as fresh grown overnight culture. Cultures were adjusted to a standard concentration of 5.0×10^7 CFU/mL and applied using a syringe at a rate of 2.2 mL/kg of forage. The application rate for all strains was 1.1×10^5 CFU/g forage. Propionic acid (88%) was applied at a rate of 4.4 mL/kg fresh forage.
PVC Silos: PVC silos were filled at a packing density of 0.288 kg DM/silo (100 kg DM/m^3); approximately 0.82-0.95 kg/silo. Silos were air infused for 24 hours on days 28 and 42, and opened after 50-60 days of ensiling.
Aerobic Stability: The method of Honig (Proc. Of the Eurobac. Conf., P. Lingvall and S. Lindgren (ed.) (12-16 Aug. 1986) Swed. Univ. of Agric. Sci. Grass and Forage Report No. 3-1990. Pp. 76-81. Uppsala, Sweden) was used for measuring aerobic stability (see Table 1). ROT is defined as the time, in hours, for the silage to heat 1.7° C. after exposure to air. Cumm_DD is the integral value of the area between the time ROT is attained and the end of the experiment. Aerobic dry matter loss (% dry matter) was determined relating the increase in temperature and the time to energy losses occurring in the silage.

[1] = average across replicate studies A, B, C

For CCC(=O)O [Propionic Acid, Propionic acid], the “Aerobic deterioration versus control grass silages” value was “significantly less aerobic deterioration”, the “Aerobic Dry Matter Loss, Avg.” value [1] was 0.43 % dry matter and the “ROT (time for the silage to heat 1.7° C. after exposure to air), Avg.” value [1] was 127 h. For the same compound, the “Aerobic Dry Matter Loss, replicate study A” value (replicate A) was 0.29 % dry matter, the “ROT (time for the silage to heat 1.7° C. after exposure to air), replicate study A” value (replicate A) was 137 h and the “Aerobic Dry Matter Loss, replicate study B” value (replicate B) was 0 % dry matter. The “ROT (time for the silage to heat 1.7° C. after exposure to air), replicate study B” value (replicate B) was 160 h, the “Aerobic Dry Matter Loss, replicate study C” value (replicate C) was 1.01 % dry matter and the “ROT (time for the silage to heat 1.7° C. after exposure to air), replicate study C” value (replicate C) was 86 h. The “Improvement of aerobic stability over the control” value (versus control) was 96 h.
